Among the data in US8975398B2, “NAMPT inhibitors” (AbbVie Inc., priority 2012, dated 2015) are IC50 values, retold here.

The target in one test is NAMPT (Homo sapiens, UniProt P43490). The test is described as follows: Time-Resolved Fluorescence Resonance Energy Transfer (TR-FRET) Binding Assay of NAMPT with PRPP. Particulars: 2 nM NAMPT, 2 nM probe, 200 uM PRPP and 2.5 mM ATP, equilibrated 16 hours. A digest of the protocol:
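Binding measured by TR-FRET after a 16-hour equilibration meant to permit enzymatic compound modification. Substrates present at 200 uM PRPP and 2.5 mM ATP, with 2 nM enzyme, 2 nM probe, 1 nM Tb-anti-His antibody and 2% DMSO final.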
Background: TR-FRET usually uses a lanthanide donor and a delayed reading to cut background.

For test [1], the target named is NAMPT (human, recombinant, C-terminally His-tagged) (Homo sapiens, UniProt P43490). The test is described as follows: Time-Resolved Fluorescence Resonance Energy Transfer (TR-FRET) Binding Assay of NAMPT. Particulars: 6.8 nM NAMPT, 200 nM probe, equilibrated 3 hours, absence of substrates. Put shortly:
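Probe displacement measured by TR-FRET (Ex 337 nm; 520/495 nm ratio) after 3 h room-temperature equilibration of compound with 6.8 nM His-tagged human NAMPT, 1 nM Tb-anti-His antibody and 200 nM Oregon Green 488 nicotinamide-site probe, pH 7.5 HEPES buffer, 2% DMSO. Control-normalized data fit four-parameter logistic for IC50.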

pIC50: −log10 of the molar value.

Sequence of NAMPT (human, recombinant, C-terminally His-tagged) (P43490 whole entry): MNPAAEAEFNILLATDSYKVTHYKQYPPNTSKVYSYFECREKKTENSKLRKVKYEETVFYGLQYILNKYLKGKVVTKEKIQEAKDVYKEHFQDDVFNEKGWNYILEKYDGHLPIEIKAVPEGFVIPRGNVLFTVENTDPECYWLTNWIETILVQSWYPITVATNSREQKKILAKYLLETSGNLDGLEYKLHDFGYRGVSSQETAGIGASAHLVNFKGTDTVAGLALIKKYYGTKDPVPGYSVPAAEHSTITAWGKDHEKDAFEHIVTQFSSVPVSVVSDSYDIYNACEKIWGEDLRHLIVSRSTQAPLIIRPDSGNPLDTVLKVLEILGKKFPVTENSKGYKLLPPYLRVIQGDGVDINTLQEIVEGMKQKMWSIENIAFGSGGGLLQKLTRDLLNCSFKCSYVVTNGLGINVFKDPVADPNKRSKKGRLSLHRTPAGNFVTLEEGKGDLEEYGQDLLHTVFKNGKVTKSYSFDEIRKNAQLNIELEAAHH
Sequence of NAMPT (P43490 whole entry): as above

The term pIC50 denotes the negative decadic logarithm of the IC50, by convention in mol/L. Take `Cc1ncccc1N1CC(C(=O)Nc2ccc(C3CCN(C(=O)CCN4CCOCC4)CC3)cc2)C1` [Example 184, 1-(2-methylpyridin-3-yl)-N-(4-{1-[3-(morpholin-4-yl)propanoyl]piperidin-4-yl}phenyl)azetidine-3-carboxamide]: the pIC50 at NAMPT is 7.10; in test [1], 6.20.
Consider `Cc1ncccc1N1CC(C(=O)Nc2ccc(C3CCN(C(=O)C(C)(C)C)CC3)cc2)C1` [Example 185, N-{4-[1-(2,2-dimethylpropanoyl)piperidin-4-yl]phenyl}-1-(2-methylpyridin-3-yl)azetidine-3-carboxamide], for which the pIC50 on NAMPT was 7.36; in test [1], 7.09.
On to `Cc1ccc(C(=O)N2CCC(c3ccc(NC(=O)C4CN(c5cccnc5C)C4)cc3)CC2)s1` [Example 186, 1-(2-methylpyridin-3-yl)-N-(4-{1-[(5-methylthiophen-2-yl)carbonyl]piperidin-4-yl}phenyl)azetidine-3-carboxamide], for which the pIC50 on NAMPT was 6.93; in test [1], 7.00.
Take `Cc1ncccc1N1CC(C(=O)Nc2ccc(C3CCN(C(=O)c4cccs4)CC3)cc2)C1` [Example 187, 1-(2-methylpyridin-3-yl)-N-{4-[1-(thiophen-2-ylcarbonyl)piperidin-4-yl]phenyl}azetidine-3-carboxamide]: the pIC50 at NAMPT was 7.56; in test [1], 7.99.
For `Cc1ncccc1N1CC(C(=O)Nc2ccc(C3CCN(C(=O)c4cccn4C)CC3)cc2)C1` [Example 188, 1-(2-methylpyridin-3-yl)-N-(4-{1-[(1-methyl-1H-pyrrol-2-yl)carbonyl]piperidin-4-yl}phenyl)azetidine-3-carboxamide] the same measures were 7.30 and 7.69.
Taken in the same sequence, the figures for `Cc1ncccc1N1CC(C(=O)Nc2ccc(C3CCN(C(=O)c4ccco4)CC3)cc2)C1` [Example 189, N-{4-[1-(furan-2-ylcarbonyl)piperidin-4-yl]phenyl}-1-(2-methylpyridin-3-yl)azetidine-3-carboxamide] were 7.57 and 8.16.
Taken in the same sequence, the figures for `Cc1ncccc1N1CC(C(=O)Nc2ccc(C3CCN(C(=O)CCN4CCCCC4)CC3)cc2)C1` [Example 190, 1-(2-methylpyridin-3-yl)-N-(4-{1-[3-(piperidin-1-yl)propanoyl]piperidin-4-yl}phenyl)azetidine-3-carboxamide] were 6.99 and 5.72.
`CCOCC(=O)N1CCC(c2ccc(NC(=O)C3CN(c4cccnc4C)C3)cc2)CC1` [Example 191, N-{4-[1-(ethoxyacetyl)piperidin-4-yl]phenyl}-1-(2-methylpyridin-3-yl)azetidine-3-carboxamide]: the negative logarithm of the IC50 (pIC50) on NAMPT was 6.74; in test [1] it was 6.13.
As for `Cc1ncccc1N1CC(C(=O)Nc2ccc(C3CCN(C(=O)CC(C)(C)C)CC3)cc2)C1` [Example 192, N-{4-[1-(3,3-dimethylbutanoyl)piperidin-4-yl]phenyl}-1-(2-methylpyridin-3-yl)azetidine-3-carboxamide], the values for the pIC50 (at NAMPT; in test [1]) were 7.14 and 7.33, respectively.
With `CCC(C)(C)C(=O)N1CCC(c2ccc(NC(=O)C3CN(c4cccnc4C)C3)cc2)CC1` [Example 193, N-{4-[1-(2,2-dimethylbutanoyl)piperidin-4-yl]phenyl}-1-(2-methylpyridin-3-yl)azetidine-3-carboxamide], the pIC50 at NAMPT is 7.27; in test [1], 7.40.
`CCCC(=O)N1CCC(c2ccc(NC(=O)C3CN(c4cccnc4C)C3)cc2)CC1` [Example 194, N-[4-(1-butanoylpiperidin-4-yl)phenyl]-1-(2-methylpyridin-3-yl)azetidine-3-carboxamide]: the pIC50 on NAMPT was 7.20; in test [1] it was 6.91.
As to `COCC(=O)N1CCC(c2ccc(NC(=O)C3CN(c4cccnc4C)C3)cc2)CC1` [Example 195, N-{4-[1-(methoxyacetyl)piperidin-4-yl]phenyl}-1-(2-methylpyridin-3-yl)azetidine-3-carboxamide], the pIC50 was 7.03 at NAMPT and 6.52 in test [1].
For `Cc1ncccc1N1CC(C(=O)Nc2ccc(C3CCN(C(=O)C4CCCCC4)CC3)cc2)C1` [Example 196, N-{4-[1-(cyclohexylcarbonyl)piperidin-4-yl]phenyl}-1-(2-methylpyridin-3-yl)azetidine-3-carboxamide] the same measures were 7.01 and 7.08.
Regarding `Cc1ncccc1N1CC(C(=O)Nc2ccc(C3CCN(C(=O)CC(C)C)CC3)cc2)C1` [Example 197, N-{4-[1-(3-methylbutanoyl)piperidin-4-yl]phenyl}-1-(2-methylpyridin-3-yl)azetidine-3-carboxamide], the pIC50 is 7.10 at NAMPT and 6.90 in test [1].
Turning to `Cc1ncccc1N1CC(C(=O)Nc2ccc(C3CCN(C(=O)C(C)C(C)C)CC3)cc2)C1` (centres unmarked) [Example 198, N-{4-[1-(2,3-dimethylbutanoyl)piperidin-4-yl]phenyl}-1-(2-methylpyridin-3-yl)azetidine-3-carboxamide], the figures for the pIC50 (at NAMPT; in test [1]) were 6.99 and 7.07, respectively.
For the compound `O=C(Nc1ccc(OC2CN(C(=O)c3ccc(F)cc3)C2)cc1)C1CN(c2ccnnc2)C1` [Example 199, N-(4-{[1-(4-fluorobenzoyl)azetidin-3-yl]oxy}phenyl)-1-(pyridazin-4-yl)azetidine-3-carboxamide], the figures for the pIC50 (at NAMPT; in test [1]) were 7.55 and 7.47, respectively.
As to `O=C(Nc1ccc(OC2CN(C(=O)c3ccc(F)cc3F)C2)cc1)C1CN(c2ccnnc2)C1` [Example 200, N-(4-{[1-(2,4-difluorobenzoyl)azetidin-3-yl]oxy}phenyl)-1-(pyridazin-4-yl)azetidine-3-carboxamide], the pIC50 on NAMPT was 7.46; in test [1], 7.48.
`O=C(Nc1ccc(OC2CN(C(=O)C(F)(F)c3ccccc3)C2)cc1)C1CN(c2ccnnc2)C1` [Example 201, N-[4-({1-[difluoro(phenyl)acetyl]azetidin-3-yl}oxy)phenyl]-1-(pyridazin-4-yl)azetidine-3-carboxamide]: the figures for the pIC50 (at NAMPT; in test [1]) were 7.74 and 7.92, respectively.
Regarding `O=C(Nc1ccc(OC2CN(C(=O)C3CCC(F)(F)CC3)C2)cc1)C1CN(c2ccnnc2)C1` [Example 202, N-[4-({1-[(4,4-difluorocyclohexyl)carbonyl]azetidin-3-yl}oxy)phenyl]-1-(pyridazin-4-yl)azetidine-3-carboxamide], the pIC50 on NAMPT is 7.05; in test [1], 6.93.
Taken in the same sequence, the figures for `O=C(Nc1ccc(OC2CN(C(=O)Cc3ccc(F)cc3)C2)cc1)C1CN(c2ccnnc2)C1` [Example 203, N-[4-({1-[(4-fluorophenyl)acetyl]azetidin-3-yl}oxy)phenyl]-1-(pyridazin-4-yl)azetidine-3-carboxamide] were 7.68 and 7.47.
Consider `O=C(Nc1ccc(C2CCN(C(=O)CC3CCCC3)CC2)cc1)[C@H]1CCN(c2cccnc2)C1` [Example 204, (3S)—N-{4-[1-(cyclopentylacetyl)piperidin-4-yl]phenyl}-1-(pyridin-3-yl)pyrrolidine-3-carboxamide], for which the pIC50 on NAMPT is 8.56; in test [1] it was 6.42.
Regarding `O=C(Nc1ccc(OC2CN(C(=O)c3ccc(C(F)(F)F)cc3)C2)cc1)C1CN(c2ccnnc2)C1` [Example 205, 1-(pyridazin-4-yl)-N-[4-({1-[4-(trifluoromethyl)benzoyl]azetidin-3-yl}oxy)phenyl]azetidine-3-carboxamide], the pIC50 on NAMPT is 7.47; in test [1] it was 7.60.
For `O=C(Nc1ccc(OC2CN(C(=O)c3ccccc3)C2)cc1)C1CN(c2ccnnc2)C1` [Example 206, N-{4-[(1-benzoylazetidin-3-yl)oxy]phenyl}-1-(pyridazin-4-yl)azetidine-3-carboxamide], the pIC50 (at NAMPT; in test [1]) was 7.62 in each case.
Turning to `CC(C)(O)C(=O)N1CC(Oc2ccc(NC(=O)C3CN(c4ccnnc4)C3)cc2)C1` [Example 207, N-(4-{[1-(2-hydroxy-2-methylpropanoyl)azetidin-3-yl]oxy}phenyl)-1-(pyridazin-4-yl)azetidine-3-carboxamide], the negative-log IC50 (pIC50) at NAMPT was 7.06; in test [1], 6.85.
On to `O=C(Nc1ccc(OC2CN(C(=O)C3CCOC3)C2)cc1)C1CN(c2ccnnc2)C1` (centres unmarked) [Example 208, 1-(pyridazin-4-yl)-N-(4-{[1-(tetrahydrofuran-3-ylcarbonyl)azetidin-3-yl]oxy}phenyl)azetidine-3-carboxamide], for which the pIC50 at NAMPT was 7.30; in test [1], 6.93.
For `O=C(Nc1ccc(OC2CN(C(=O)c3ccoc3)C2)cc1)C1CN(c2ccnnc2)C1` [Example 209, N-(4-{[1-(furan-3-ylcarbonyl)azetidin-3-yl]oxy}phenyl)-1-(pyridazin-4-yl)azetidine-3-carboxamide], the values for the pIC50 (on NAMPT; in test [1]) were 7.54 and 7.21, respectively.
With `CCCCC(=O)N1CC(Oc2ccc(NC(=O)C3CN(c4ccnnc4)C3)cc2)C1` [Example 210, N-{4-[(1-pentanoylazetidin-3-yl)oxy]phenyl}-1-(pyridazin-4-yl)azetidine-3-carboxamide], the pIC50 is 7.42 on NAMPT and 7.50 in test [1].
For the compound `O=C(Nc1ccc(OC2CCN(C(=O)c3ccccc3Cl)CC2)cc1)C1CN(c2cccnn2)C1` [Example 211, N-(4-{[1-(2-chlorobenzoyl)piperidin-4-yl]oxy}phenyl)-1-(pyridazin-3-yl)azetidine-3-carboxamide], the figures for the pIC50 (on NAMPT; in test [1]) were 9.10 and 7.50, respectively.
